What follows are compounds tested on α-MyHC protein levels (assay: α-MyHC cytoblot assay in neonatal rat ventricular myocytes (NRVM)). Conditions: 10 mM Cpd; NRVM, 3 days.
Assay type: cell-based
Method: FIG. 1 Concentration-dependent effect of Compound 1 on α-MyHC protein levels in the cytoblot assay. NRVM are cultured for 3 days in serum-free medium in the presence of differing amounts of Compound 1. At the end of the culture period, NRVM are fixed and analyzed for α-MyHC protein levels using the BA-G5 monoclonal antibody specific for α-MyHC. Results are collected as RLU using a Packard Fusion Plate reader, and normalized to the signal from samples cultured in the absence of compound (control, set to 100%).
Preparation and culture of neonatal rat ventricular myocytes (NRVM) was performed by removing hearts from 1-3 day old rat neonatal pups, along with the atria and lungs. The ventricles were cut into smaller pieces and digested 3 times with collagenase for 20-30 min at 37° C. The myocytes were then separated from other cell types using a Percoll gradient. The myocyte layer was collected, washed 2 times, and plated on tissue culture grade 10 cm Petri dishes for 1-2 hrs. The non-adherent cells (myocytes) were removed and plated in Costar clear view 96 well plates coated with 0.2% gelatin for at least 2 hrs. The gelatin solution was removed, and the myocytes were resuspended in DMEM high glucose media (Mediatech) containing 10% charcoal/dextran treated FBS (Hyclone) and 1% Penicillin-Streptomycin-Glutamine (PSG, Gibco). Ten thousand NRVM were plated per well in a 100 μl volume, and incubated overnight at 37° C. in 5% CO2 in air. The following day, the media was replaced with 100 μl of serum-free DMEM high glucose medium supplemented with PSG and 0.3% Nutridoma-SP (Roche).
Compounds were reconstituted in DMSO at 30 mM, and aliquots were stored at −20° C. A 1:1000 dilution was prepared in serum-free DMEM medium supplemented with PSG and 0.3% Nutridoma, and sonicated for 5 min at room temperature. After sonication, additional 3 fold dilutions were prepared in the same medium. Diluted compound was then added to the NRVM cultures in a volume of 100 μl. A 100 mM thyroid hormone stock solution (T3, Calbiochem) was prepared in 100 mM NaOH and added at a final concentration of 3 nM in DMEM medium supplemented with PSG and 0.3% Nutridoma-SP (Roche). NRVM were cultured for 3 days before detection of α-myosin heavy chain (α-MyHC) protein levels in the cytoblot assay.
For the α-MyHC cytoblot assay, NRVM cultures were analyzed for α-MyHC protein levels after 3 days of incubation. NRVM were washed 2 times with PBS, fixed with methanol for 30 min at 4° C., and washed an additional 2 times with PBS. Blocking solution consisting of PBS with 1% bovine serum albumin (BSA, Fisher Biotech) was added for 1 hr at room temperature before addition of a saturating amount of supernatant containing an α-MyHC specific antibody for 60 min at room temperature (BA-G5 hybridoma, ATTC). Two washes were performed with PBS/1% BSA, and a 1:500 dilution of HRP-goat anti-mouse IgG (Southern Biotech) diluted in PBS/1% BSA was added for 60 min at room temperature. Excess antibody was removed with 3 PBS washes, and a chemiluminescent substrate was added (Pierce SuperSignal West Pico Chemiluminscent Substrate) for 5 min before quantitation on a Packard Fusion Plate Reader.
As shown above in Table 1, Compound 1 increased α-MyHC protein levels as determined by an α-MyHC cytoblot assay. Compound 1 was added to NRVM at concentration ranging from 3 nM to 30 μM. After 3 days of incubation with NRVM, α-MyHC protein levels were detected in the cytoblot assay and quantitated (FIG. 1). […] An increase in α-MyHC protein levels was first detected beginning at 30 nM, with a maximal response observed at 3 μM. In six independent experiments, the concentration of Compound 1 that gave a half-maximal response was on average 60 nM.
With `CC(=O)C1=C(C)NC(SCC(=O)c2cccc([N+](=O)[O-])c2)=C(C#N)C1c1cccc(C)c1` (racemic) [Compound 2] the “% increase of a-MyHC over baseline at 10 mM Cpd” value (shortened to “% increase … at 10 mM Cpd”) was 95%.
`CC(=O)C1=C(C)NC(SCC(=O)c2cc(Cl)ccc2Cl)=C(C#N)C1c1ccccc1Cl` (racemic) [Compound 3] was tested, and the “% increase … at 10 mM Cpd” value was 314%.
For `CC(=O)C1=C(C)NC(SCC(=O)c2ccccc2Cl)=C(C#N)C1c1ccccc1Cl` (racemic) [Compound 4], the “% increase … at 10 mM Cpd” value was 135%.
With `CC(=O)C1=C(C)NC(SCC(=O)c2ccc(Cl)cc2)=C(C#N)C1c1ccccc1Cl` (racemic) [Compound 5] the “% increase … at 10 mM Cpd” value was 52%.
With `CC(=O)C1=C(C)NC(SCC(=O)c2ccc(Br)cc2)=C(C#N)C1c1ccccc1Cl` (racemic) [Compound 6] the “% increase … at 10 mM Cpd” value was 53%.
For `CC(=O)C1=C(C)NC(SCC(=O)c2ccc(Cl)c(Cl)c2)=C(C#N)C1c1ccc(Cl)cc1` (racemic) [Compound 7], the “% increase … at 10 mM Cpd” value was 43%.
For `CC(=O)C1=C(C)NC(SCC(=O)c2ccc(Cl)cc2Cl)=C(C#N)C1c1ccc(Cl)cc1` (racemic) [Compound 8], the “% increase … at 10 mM Cpd” value was 29%.
`CC(=O)C1=C(C)NC(SCC(=O)c2ccccc2Cl)=C(C#N)C1c1ccc(Cl)cc1` (racemic) [Compound 9] was tested, and the “% increase … at 10 mM Cpd” value was 80%.
For `CC(=O)C1=C(C)NC(SCC(=O)c2ccc(Cl)c(Cl)c2)=C(C#N)C1c1ccc(F)cc1` (racemic) [Compound 10], the “% increase … at 10 mM Cpd” value was 88%.
For `CC(=O)C1=C(C)NC(SCC(=O)c2ccc(Cl)cc2Cl)=C(C#N)C1c1ccc(F)cc1` (racemic) [Compound 11], the “% increase … at 10 mM Cpd” value was 51%.
For `CC(=O)C1=C(C)NC(SCC(=O)c2ccc(Br)cc2)=C(C#N)C1c1cccc([N+](=O)[O-])c1` (racemic) [Compound 12], the “% increase … at 10 mM Cpd” value was 34%.
With `CC(=O)C1=C(C)NC(SCC(=O)c2ccc(Cl)c(Cl)c2)=C(C#N)C1c1ccccc1` (racemic) [Compound 13] the “% increase … at 10 mM Cpd” value was 95%.
In the case of `CC(=O)C1=C(C)NC(SCC(=O)c2ccc([N+](=O)[O-])cc2)=C(C#N)C1c1ccccc1Cl` (racemic) [Compound 14], the “% increase … at 10 mM Cpd” value is reported as 24%.
With `CC(=O)C1=C(C)NC(SCC(=O)c2ccc(Cl)cc2Cl)=C(C#N)C1c1ccccc1` (racemic) [Compound 15] the “% increase … at 10 mM Cpd” value was 81%.
For `CC(=O)C1=C(C)NC(SCC(=O)c2cccc(Br)c2)=C(C#N)C1c1ccccc1` (racemic) [Compound 16], the “% increase … at 10 mM Cpd” value was 143%.
For `CC(=O)C1=C(C)NC(SCC(=O)c2ccc(Cl)cc2)=C(C#N)C1c1ccccc1` (racemic) [Compound 17], the “% increase … at 10 mM Cpd” value was 29%.
For `CC(=O)C1=C(C)NC(SCC(=O)c2ccc(F)cc2)=C(C#N)C1c1ccccc1` (racemic) [Compound 18], the “% increase … at 10 mM Cpd” value was 37%.
For `CC(=O)C1=C(C)NC(SCC(=O)c2ccccc2)=C(C#N)C1c1ccccc1` (racemic) [Compound 19], the “% increase … at 10 mM Cpd” value was 71%.
With `CC(=O)C1=C(C)NC(SCC(=O)c2ccc(Cl)c(Cl)c2)=C(C#N)C1c1cccc(C)c1` (racemic) [Compound 20] the “% increase … at 10 mM Cpd” value was 79%.
In the case of `CC(=O)C1=C(C)NC(SCC(=O)c2ccc(Cl)c(Cl)c2)=C(C#N)C1c1ccccc1Cl` (racemic) [Compound 21], the “% increase … at 10 mM Cpd” value is reported as 126%.
`CC(=O)C1=C(C)NC(SCC(=O)c2ccc(Cl)cc2Cl)=C(C#N)C1c1ccccc1Cl` (racemic) [Compound 22] was tested, and the “% increase … at 10 mM Cpd” value was 81%.
In the case of `CC(=O)C1=C(C)NC(SCC(=O)c2cc(Cl)ccc2Cl)=C(C#N)C1c1ccc(Br)cc1` (racemic) [Compound 23], the “% increase … at 10 mM Cpd” value is reported as 70%.
`CCc1ccc(C2C(C#N)=C(SCC(=O)c3cccc([N+](=O)[O-])c3)NC(C)=C2C(C)=O)cc1` (racemic) [Compound 24] was tested, and the “% increase … at 10 mM Cpd” value was 130%.
For `CC(=O)C1=C(C)NC(SCC(=O)c2cccc([N+](=O)[O-])c2)=C(C#N)C1c1ccc(Cl)cc1` (racemic) [Compound 25], the “% increase … at 10 mM Cpd” value was 139%.
`CC(=O)C1=C(C)NC(SCC(=O)c2ccccc2)=C(C#N)C1c1ccccc1Cl` (racemic) [Compound 26] was tested, and the “% increase … at 10 mM Cpd” value was 161%.
For `CC(=O)C1=C(C)NC(SCC(=O)c2cc(Cl)ccc2Cl)=C(C#N)C1c1ccccc1` (racemic) [Compound 27], the “% increase … at 10 mM Cpd” value was 303%.
In the case of `CC(=O)C1=C(C)NC(SCC(=O)c2ccc([N+](=O)[O-])cc2)=C(C#N)C1c1ccccc1` (racemic) [Compound 28], the “% increase … at 10 mM Cpd” value is reported as 125%.
For `CC(=O)C1=C(C)NC(SCC(=O)c2ccc(Cl)c(Cl)c2)=C(C#N)C1c1cccc([N+](=O)[O-])c1` (racemic) [Compound 29], the “% increase … at 10 mM Cpd” value was 201%.
For `CC(=O)C1=C(C)NC(SCC(=O)c2cccc([N+](=O)[O-])c2)=C(C#N)C1c1cccs1` (racemic) [Compound 30], the “% increase … at 10 mM Cpd” value was 156%.
In the case of `CC(=O)C1=C(C)NC(SCC(=O)c2ccc(Cl)c(Cl)c2)=C(C#N)C1c1cccs1` (racemic) [Compound 31], the “% increase … at 10 mM Cpd” value is reported as 151%.
For `CC(=O)C1=C(C)NC(SCC(=O)c2ccc(Cl)cc2Cl)=C(C#N)C1c1cccs1` (racemic) [Compound 32], the “% increase … at 10 mM Cpd” value was 45%.
`CC(=O)C1=C(C)NC(SCC(=O)c2cc(Cl)ccc2Cl)=C(C#N)C1c1cccs1` (racemic) [Compound 33] was tested, and the “% increase … at 10 mM Cpd” value was 181%.
In the case of `CC(=O)C1=C(C)NC(SCC(=O)c2ccc(Cl)cc2Cl)=C(C#N)C1c1ccco1` (racemic) [Compound 34], the “% increase … at 10 mM Cpd” value is reported as 97%.
For `CC(=O)C1=C(C)NC(SCC(=O)c2ccc([N+](=O)[O-])cc2)=C(C#N)C1c1ccco1` (racemic) [Compound 36], the “% increase … at 10 mM Cpd” value was 115%.

Same assay, conditions: at 3 µM; NRVM, 3 days
With `CC(=O)C1=C(C)NC(SCC(=O)c2ccc(Cl)c(Cl)c2)=C(C#N)C1c1ccco1` (racemic) [Compound 35] the “% increase of a-MyHC over baseline (at 3 µM)” value was 125 (at 3 mM) %.

Same assay, conditions: tested according to Example 1; read-out: MPE50 for increasing α-MyHC protein levels
`CC(=O)C1=C(C)NC(SCC(=O)c2cccc([N+](=O)[O-])c2)=C(C#N)C1c1ccccc1Cl` (stereo not drawn) [R-enantiomer] was tested, and the EC50 was 790 nM.
Work on `CC(=O)C1=C(C)NC(SCC(=O)c2cccc([N+](=O)[O-])c2)=C(C#N)C1c1ccccc1Cl` (stereo not drawn) [S-enantiomer] yielded an EC50 of over 32000 nM.

Each compound was assayed on secretion of atrial natriuretic factor (assay: Anti-hypertrophic activity in NRVM, ANF ELISA (ANF secretion)). Conditions: NRVM, hypertrophy induced by pharmacological stimuli; read-out: IC50 of the ANF ELISA (antihypertrophic activity).
Assay type: cell-based, rat
Method: Anti-hypertrophic Activity of Racemic Compound 1 and Purified Enantiomers of Compound 1. Neonatal rat ventricular myocytes (NRVM) were isolated from 1 to 3 day-old Sprague-Dawley rats using enzymatic digestion and myocyte enrichment techniques. NRVM were cultured in serum-containing media for 18 hours. For the continuation of culture, serum-free media was used. Hypertrophy of NRVM was induced using pharmacological stimuli, including phenylephrine, endothelin-1, and […]. Hypertrophic responses were determined using methods including the following: measurement of total cellular protein; secretion of atrial natriuretic factor; determination of cell volume; determination of the expression of so-called fetal genes such as atrial natriuretic factor, beta-myosin heavy chain and alpha-skeletal actin. ANF secretion was the most sensitive assay for measuring hypertrophy, and the IC50 of the ANF ELISA was the measurement used to determine antihypertrophic activity.
For `CC(=O)C1=C(C)NC(SCC(=O)c2cccc([N+](=O)[O-])c2)=C(C#N)C1c1ccccc1Cl` (stereo not drawn) [R-enantiomer], the IC50 was 1100 nM.
With `CC(=O)C1=C(C)NC(SCC(=O)c2cccc([N+](=O)[O-])c2)=C(C#N)C1c1ccccc1Cl` (stereo not drawn) [S-enantiomer] the IC50 was 389 nM.

Source: US20050124634A1, “1,4-dihydropyridine compounds, pharmaceutical compositions, and methods for the treatment of cardiovascular disease” (MYOGEN, INC., priority 2003, published 2005)
